Results on 32 compounds are retold here after PubChem BioAssay (NCI).

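A five-concentration, 48-hour dose response in 96-well plates underlies each endpoint, interpolated linearly between surrounding concentrations. The concentration for full growth arrest is given as TGI.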

The subject of one test is HCC-2998 colon. The test can be described thus: inhibition of tumour cell growth, NCI panel, 48 h.
The compound `N#C/C(=C\n1ccc(=O)[nH]c1=S)C(N)=O` returned a TGI above 100 µM.

In the case of `O=C(OCC1OC2OC(c3ccccc3)(n3ccc4c([N+](=O)[O-])ccnc43)OC2C1OC(=O)c1ccccc1)c1ccccc1` (stereo not given), the TGI was above 100 µM.

For `Cc1ccc(/C(O)=C/C(=O)C(=O)/C=C(\O)c2ccc(C)cc2C)c(C)c1`, the TGI is 4.09 µM.

On to `CC1=COC(C)(C=C(C#N)C#N)CC1` (stereo not given), for which the TGI was above 100 µM.

`O=C(NCCCCCCNCc1cccc2ccccc12)Nc1cccc2ccccc12` gave a TGI above 100 µM.

Turning to `Cc1ccc([C@H]2CC(=O)C[C@H](c3ccc(C)cc3)C23C(=O)c2ccccc2C3=O)cc1`, the TGI was above 100 µM.

On to `O=c1c2ncn(COCCCl)c2n(-c2ccccc2)c(=S)n1-c1ccccc1`, for which the TGI was above 100 µM.

In the case of `COc1ccc(/C=N/N=C(\N)NO)c(O)c1`, the TGI was above 10 µM.

In the case of `OCC1OC(n2cnc3c(Cl)nc(Nc4ccccc4)nc32)CC1O` (stereo not given), the TGI was 44.7 µM.

For `NCCSc1nc2ccccc2c(=O)n1-c1ccccc1`, the TGI was above 100 µM.

As for `Nc1ccc(N=Nc2ccccc2)cc1`, the TGI is above 100 µM.

In turn, `CN(NC(=O)c1cccs1)C1=NCCCN1` had a TGI above 100 µM.

The compound `c1cc2nnnn2nc1N1CCCC1` registered a TGI above 100 µM.

In turn, `N#Cc1c(-c2ccccc2)nc(-c2ccccc2)sc1=S` showed a TGI above 100 µM.

Turning to `COc1cc(Nc2c3ccccc3nc3ccccc23)ccc1NS(C)(=O)=O`, the TGI was found to be 28.8 µM.

`CCn1nc2c3c(ncn3C(C)(C)O2)c1=O` returned a TGI above 100 µM.

In turn, `O=C1CCCCC(=O)OC2(CCCCC2=O)CC1` (stereo not given) showed a TGI above 100 µM.

`CCCCCC(=O)NC(=S)Nc1nn[nH]n1` came in with a TGI above 100 µM.

For the compound `CCC(C#N)NC(=O)NC(C#N)CC` (stereo not given), the TGI was above 100 µM.

The compound `C[C@H](N)C(=O)Nc1ccc(-c2nc3ccccc3s2)cc1` registered a TGI of 45.8 µM.

`CC(=O)O[C@H]1C#C/C=C\C#CC[C@@H]2C(=O)N[C@@H]12`: the TGI is above 100 µM.

Compound `Cc1ccc2nc(Cl)c(/C=N/N3C(=O)/C(=C/c4ccccc4S)N=C3c3ccccc3)cc2c1` displayed a TGI above 100 µM.

Take `CN(O)C(=O)c1cccc(Cl)c1`: the TGI was above 100 µM.

`CCOP(=O)(OCC)c1c(C(=O)OC)cc(=O)[nH]c1-c1ccc(C)cc1` gave a TGI of 33.5 µM.

On to `COC(=O)C1=C(C(=O)OC)SC2(S1)C1=C(CCCC1)SC(C(=O)OC)=C2C(=O)OC`, for which the TGI worked out at 28.2 µM.

Turning to `C1CCC2C(C1)CCCC2NC1=NCCO1` (stereo not given), the TGI was above 100 µM.

`Cc1cn(C2CC(n3cc(Cn4cc(Br)c(=O)[nH]c4=O)nn3)C(CO)O2)c(=O)[nH]c1=O` (stereo not given) showed a TGI above 100 µM.

In turn, `C1CNCCNCCN1` registered a TGI above 100 µM.

Compound `COc1ccc(O)cc1` registered a TGI above 100 µM.

Regarding `Cc1cn(C(Cc2ccccc2)OCCO)c(=O)[nH]c1=O` (stereo not given), the TGI was above 100 µM.

For `O=c1nc2c(c(-c3ccccc3Cl)[nH]1)COC/C2=C\c1ccccc1Cl`, the TGI is above 100 µM.

For another test, the system named is U251 CNS. The test can be described thus: inhibition of tumour cell growth, NCI panel, 48 h.
Compound `O=c1[nH]/c(=C/c2ccc(OCc3ccccc3)cn2)c(=O)[nH]/c1=C/c1ccc(O)cc1` had a TGI above 87.9 µM.

Turning to `N#C/C(=C\n1ccc(=O)[nH]c1=S)C(N)=O`, the TGI is above 100 µM.

Take `O=C(OCC1OC2OC(c3ccccc3)(n3ccc4c([N+](=O)[O-])ccnc43)OC2C1OC(=O)c1ccccc1)c1ccccc1` (stereo not given): the TGI was above 100 µM.

`Cc1ccc(/C(O)=C/C(=O)C(=O)/C=C(\O)c2ccc(C)cc2C)c(C)c1` displayed a TGI of 3.49 µM.

Compound `CC1=COC(C)(C=C(C#N)C#N)CC1` (stereo not given) displayed a TGI above 100 µM.

In turn, `O=C(NCCCCCCNCc1cccc2ccccc12)Nc1cccc2ccccc12` displayed a TGI above 100 µM.

Consider `Cc1ccc([C@H]2CC(=O)C[C@H](c3ccc(C)cc3)C23C(=O)c2ccccc2C3=O)cc1`, for which the TGI came to 35.6 µM.

Regarding `O=c1c2ncn(COCCCl)c2n(-c2ccccc2)c(=S)n1-c1ccccc1`, the TGI was above 100 µM.

As to `COc1ccc(/C=N/N=C(\N)NO)c(O)c1`, the TGI is above 10 µM.

For the compound `OCC1OC(n2cnc3c(Cl)nc(Nc4ccccc4)nc32)CC1O` (stereo not given), the TGI is above 100 µM.

Take `NCCSc1nc2ccccc2c(=O)n1-c1ccccc1`: the TGI is above 100 µM.

`Nc1ccc(N=Nc2ccccc2)cc1` gave a TGI above 100 µM.

`CN(NC(=O)c1cccs1)C1=NCCCN1`: the TGI was above 100 µM.

Regarding `c1cc2nnnn2nc1N1CCCC1`, the TGI was above 100 µM.

As to `N#Cc1c(-c2ccccc2)nc(-c2ccccc2)sc1=S`, the TGI was above 100 µM.

For the compound `COc1cc(Nc2c3ccccc3nc3ccccc23)ccc1NS(C)(=O)=O`, the TGI worked out at 25.2 µM.

In turn, `CCn1nc2c3c(ncn3C(C)(C)O2)c1=O` yielded a TGI above 100 µM.

Compound `O=C1CCCCC(=O)OC2(CCCCC2=O)CC1` (stereo not given) registered a TGI above 100 µM.

`CCCCCC(=O)NC(=S)Nc1nn[nH]n1` returned a TGI above 100 µM.

Turning to `CCC(C#N)NC(=O)NC(C#N)CC` (stereo not given), the TGI was above 100 µM.

The compound `C[C@H](N)C(=O)Nc1ccc(-c2nc3ccccc3s2)cc1` showed a TGI of 32.2 µM.

`CC(=O)O[C@H]1C#C/C=C\C#CC[C@@H]2C(=O)N[C@@H]12` registered a TGI above 100 µM.

The compound `Cc1ccc2nc(Cl)c(/C=N/N3C(=O)/C(=C/c4ccccc4S)N=C3c3ccccc3)cc2c1` gave a TGI above 100 µM.

`CN(O)C(=O)c1cccc(Cl)c1`: the TGI is above 100 µM.

As to `CCOP(=O)(OCC)c1c(C(=O)OC)cc(=O)[nH]c1-c1ccc(C)cc1`, the TGI was determined as 29.3 µM.

`COC(=O)C1=C(C(=O)OC)SC2(S1)C1=C(CCCC1)SC(C(=O)OC)=C2C(=O)OC` gave a TGI of 19.4 µM.

As for `C1CCC2C(C1)CCCC2NC1=NCCO1` (stereo not given), the TGI was above 100 µM.

`Cc1cn(C2CC(n3cc(Cn4cc(Br)c(=O)[nH]c4=O)nn3)C(CO)O2)c(=O)[nH]c1=O` (stereo not given) yielded a TGI above 100 µM.

`C1CNCCNCCN1`: the TGI was above 100 µM.

`COc1ccc(O)cc1`: the TGI is above 100 µM.

`Cc1cn(C(Cc2ccccc2)OCCO)c(=O)[nH]c1=O` (stereo not given): the TGI is above 100 µM.

As for `O=c1nc2c(c(-c3ccccc3Cl)[nH]1)COC/C2=C\c1ccccc1Cl`, the TGI was above 100 µM.

The next test deals with CCRF-CEM leukemia. The test can be described thus: inhibition of tumour cell growth, NCI panel, 48 h.
In turn, `O=c1[nH]/c(=C/c2ccc(OCc3ccccc3)cn2)c(=O)[nH]/c1=C/c1ccc(O)cc1` showed a TGI above 100 µM.

Turning to `N#C/C(=C\n1ccc(=O)[nH]c1=S)C(N)=O`, the TGI is above 100 µM.
